Test system: 435261-313-R-J1-PDC tumor spheroid viability
Experiment: Anticancer human tumor 435261-313-R-J1-PDC patient-derived colon adenocarcinoma cell line growth inhibition [PI3K]
Details: spheroids with HUVEC and MSC; for IC50: curve of first compound; for viability, T/C: stronger effect = lower value
Summary of the method: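 Agents were dosed from a top concentration near clinical Cmax (otherwise 10 microM) in half-log decrements, alone or combined with PI3K inhibitors. The spheroids contain tumor cells plus endothelial (HUVEC) and MSC stroma; viability is measured.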
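Further: spheroids exposed to compounds for 7 days.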

## Cn1cnc2c(F)c(Nc3ccc(Br)cc3Cl)c(C(=O)NOCCO)cc21 + CC(Nc1ncnc2nc[nH]c12)c1cc2cccc(Cl)c2c(=O)n1-c1ccccc1
Second compound 0.0316 µM
  IC50: 15.5 nM
Second compound 0.1 µM
  IC50: 10.7 nM
Second compound 0.316 µM
  IC50: 16 nM
Second compound 1 µM
  IC50: < 9.49 nM
Second compound 3.16 µM
  IC50: < 9.49 nM
Second compound 10 µM
  IC50: < 9.49 nM
Second compound 0.0316 µM, first compound 0.00949 µM
  viability, T/C: 60.3%
Second compound 0.0316 µM, first compound 0.03 µM
  viability, T/C: 35.7%
Second compound 0.0316 µM, first compound 0.0949 µM
  viability, T/C: 26.9%
Second compound 0.0316 µM, first compound 0.3 µM
  viability, T/C: 25.1%
Second compound 0.0316 µM, first compound 0.949 µM
  viability, T/C: 22.2%
Second compound 0.0316 µM, first compound 3 µM
  viability, T/C: 18.6%
Second compound 0.1 µM, first compound 0.00949 µM
  viability, T/C: 51.9%
Second compound 0.1 µM, first compound 0.03 µM
  viability, T/C: 34.6%
Second compound 0.1 µM, first compound 0.0949 µM
  viability, T/C: 23%
Second compound 0.1 µM, first compound 0.3 µM
  viability, T/C: 25%
Second compound 0.1 µM, first compound 0.949 µM
  viability, T/C: 21.7%
Second compound 0.1 µM, first compound 3 µM
  viability, T/C: 16.6%
Second compound 0.316 µM, first compound 0.00949 µM
  viability, T/C: 59.9%
Second compound 0.316 µM, first compound 0.03 µM
  viability, T/C: 38.6%
Second compound 0.316 µM, first compound 0.0949 µM
  viability, T/C: 25%
Second compound 0.316 µM, first compound 0.3 µM
  viability, T/C: 22.7%
Second compound 0.316 µM, first compound 0.949 µM
  viability, T/C: 21.4%
Second compound 0.316 µM, first compound 3 µM
  viability, T/C: 13.9%
Second compound 1 µM, first compound 0.00949 µM
  viability, T/C: 43.4%
Second compound 1 µM, first compound 0.03 µM
  viability, T/C: 34.5%
Second compound 1 µM, first compound 0.0949 µM
  viability, T/C: 26.4%
Second compound 1 µM, first compound 0.3 µM
  viability, T/C: 22.2%
Second compound 1 µM, first compound 0.949 µM
  viability, T/C: 21%
Second compound 1 µM, first compound 3 µM
  viability, T/C: 12.1%
Second compound 3.16 µM, first compound 0.00949 µM
  viability, T/C: 38.8%
Second compound 3.16 µM, first compound 0.03 µM
  viability, T/C: 29.6%
Second compound 3.16 µM, first compound 0.0949 µM
  viability, T/C: 21%
Second compound 3.16 µM, first compound 0.3 µM
  viability, T/C: 20.6%
Second compound 3.16 µM, first compound 0.949 µM
  viability, T/C: 19.5%
Second compound 3.16 µM, first compound 3 µM
  viability, T/C: 12.3%
Second compound 10 µM, first compound 0.00949 µM
  viability, T/C: 22.3%
Second compound 10 µM, first compound 0.03 µM
  viability, T/C: 21.1%
Second compound 10 µM, first compound 0.0949 µM
  viability, T/C: 19.6%
Second compound 10 µM, first compound 0.3 µM
  viability, T/C: 16.3%
Second compound 10 µM, first compound 0.949 µM
  viability, T/C: 15.9%
Second compound 10 µM, first compound 3 µM
  viability, T/C: 9.75%

## CCN1CCN(Cc2ccc(Nc3ncc(F)c(-c4cc(F)c5nc(C)n(C(C)C)c5c4)n3)nc2)CC1 + CC(Nc1ncnc2nc[nH]c12)c1cc2cccc(Cl)c2c(=O)n1-c1ccccc1
Second compound 0.0316 µM
  IC50: > 1000 nM
Second compound 0.1 µM
  IC50: > 1000 nM
Second compound 0.316 µM
  IC50: > 1000 nM
Second compound 1 µM
  IC50: 222 nM
Second compound 3.16 µM
  IC50: 20.8 nM
Second compound 10 µM
  IC50: < 3.16 nM
Second compound 0.0316 µM, first compound 0.00316 µM
  viability, T/C: 97.8%
Second compound 0.0316 µM, first compound 0.01 µM
  viability, T/C: 81.8%
Second compound 0.0316 µM, first compound 0.0316 µM
  viability, T/C: 63.5%
Second compound 0.0316 µM, first compound 0.1 µM
  viability, T/C: 60.1%
Second compound 0.0316 µM, first compound 0.316 µM
  viability, T/C: 54.7%
Second compound 0.0316 µM, first compound 1 µM
  viability, T/C: 51.6%
Second compound 0.1 µM, first compound 0.00316 µM
  viability, T/C: 73.2%
Second compound 0.1 µM, first compound 0.01 µM
  viability, T/C: 82.4%
Second compound 0.1 µM, first compound 0.0316 µM
  viability, T/C: 99.5%
Second compound 0.1 µM, first compound 0.1 µM
  viability, T/C: 54.3%
Second compound 0.1 µM, first compound 0.316 µM
  viability, T/C: 48.6%
Second compound 0.1 µM, first compound 1 µM
  viability, T/C: 60.4%
Second compound 0.316 µM, first compound 0.00316 µM
  viability, T/C: 99.1%
Second compound 0.316 µM, first compound 0.01 µM
  viability, T/C: 110%
Second compound 0.316 µM, first compound 0.0316 µM
  viability, T/C: 74.2%
Second compound 0.316 µM, first compound 0.1 µM
  viability, T/C: 61.9%
Second compound 0.316 µM, first compound 0.316 µM
  viability, T/C: 46.6%
Second compound 0.316 µM, first compound 1 µM
  viability, T/C: 54.5%
Second compound 1 µM, first compound 0.00316 µM
  viability, T/C: 96%
Second compound 1 µM, first compound 0.01 µM
  viability, T/C: 85.3%
Second compound 1 µM, first compound 0.0316 µM
  viability, T/C: 59.7%
Second compound 1 µM, first compound 0.1 µM
  viability, T/C: 50.3%
Second compound 1 µM, first compound 0.316 µM
  viability, T/C: 44.9%
Second compound 1 µM, first compound 1 µM
  viability, T/C: 54.6%
Second compound 3.16 µM, first compound 0.00316 µM
  viability, T/C: 92.2%
Second compound 3.16 µM, first compound 0.01 µM
  viability, T/C: 62%
Second compound 3.16 µM, first compound 0.0316 µM
  viability, T/C: 43.9%
Second compound 3.16 µM, first compound 0.1 µM
  viability, T/C: 36.1%
Second compound 3.16 µM, first compound 0.316 µM
  viability, T/C: 42.1%
Second compound 3.16 µM, first compound 1 µM
  viability, T/C: 37.7%
Second compound 10 µM, first compound 0.00316 µM
  viability, T/C: 43.8%
Second compound 10 µM, first compound 0.01 µM
  viability, T/C: 42.4%
Second compound 10 µM, first compound 0.0316 µM
  viability, T/C: 32.5%
Second compound 10 µM, first compound 0.1 µM
  viability, T/C: 30.7%
Second compound 10 µM, first compound 0.316 µM
  viability, T/C: 30.4%
Second compound 10 µM, first compound 1 µM
  viability, T/C: 34.6%
